Results as given in patent US20220062165A1, “COMPOSITIONS AND METHODS FOR INTRANASAL DELIVERY OF PREGNENOLONE” (M et P Pharma AG, priority 2018, published 2022).
“Also recorded” adds a separate entry of the source.

What was measured:
Set-up in all cases: species or system rat
[1] = tested on: extracellular acetylcholine levels in the amygdala; experiment: In vivo microdialysis after lateralized intranasal administration (one nostril), amygdala; conditions: 5 μl of 11.2 mg/mL gel in one nostril, vehicle in the other; anesthetized rats; n=10
Description: Subjects. A total number of 10 adult male Wistar rats 3-4 months of age and weighting between 400 and 500 grams, at the time of surgery, were obtained from the local animal facility (Tierversuchsanlage, University of Dusseldorf, Germany). They were grouped 4 per cage (Makrolon cage, type IV, 60.0×20.0×38.0 centimeter), and separated into individual cases after the surgery. They were housed under a reversed light-dark cycle (light off from 7 after midnight (AM) to 7 post meridiem (PM)), with free access to food and water. […] After two weeks of adaptation, animals underwent microdialysis as described below. All experiments were carried out in accordance with the European Communities Council Directive (86/609/EEC) on animal welfare, and approved by the German Animal Protection Law Authorities—LANUV Nordrhein-Westfalen.
Surgery. Rats underwent implantation of microdialysis probes into specific brain areas. They were anesthetized with a mixture of ketamine hydrochloride (90.0 milligram/kilogram (mg/kg); Pharmacia & Upjohn) and xylazine hydrochloride (8.0 mg/kg; Bayer) and placed in a stereotaxic frame (David Kopf Instruments). […]
Microdialysis. […] The animal was placed in an acrylic box (45×25×22 centimeter), and the body temperature was monitored and held stable at 36.5±0.5 degrees Celsius by atemperature controller (CMA/150) and a heating pad. […]

[2] = tested on: extracellular acetylcholine levels in the frontal cortex; experiment: In vivo microdialysis after intranasal administration in both nostrils, frontal cortex; conditions: 5 μl each in both nostrils
Procedure: (§1) Acetylcholine concentration values are presented as % of baseline with six baseline samples taken as 100 (mean+SE). Pregnenolone was administrated intranasally at a volume of 5 μl each in both nostrils, at the 0 minute time point. Time is presented in the x-axis and mean and standard error of acetylcholine concentration (expressed as % of baseline) are presented in the y-axis. Filled black circles represent the vehicle, unfilled white circles represent the 5.6 mg/mL pregnenolone dose and the triangle represents the 11.2 mg/mL pregnenolone dose.
(§2) The semipermeable membrane allows molecules smaller than 6 KDa to pass through. The length of the active membrane is 2 mm for the frontal cortex and amygdala, and 4 mm for the hippocampus.
(§3) Microdialysis. Prior the microdialysis process, the animals were anesthetized with Urethane intraperitoneal injection. (1.25 gram/kilogram, Sigma Aldrich). To allow fluid supply (perfusion liquid) (Ringer's solution 0.2 milliliter every 20 minutes) without physical contact with the animal, a catheter was placed into the intraperitoneal cavity. The animal was placed in an acrylic box (45×25×22 centimeter), and the body temperature was monitored and held stable at 36.5±0.5 degrees Celsius by atemperature controller (CMA/150) and a heating pad. […]

[3] = tested on: extracellular acetylcholine levels in the hippocampus; experiment: In vivo microdialysis after intranasal administration in both nostrils, hippocampus; conditions: 5 μl each in both nostrils
Procedure: as §1, §2, §3

[4] = tested on: extracellular acetylcholine levels in the amygdala; experiment: In vivo microdialysis after intranasal administration in both nostrils, amygdala; conditions: 11.2 mg/mL, 5 μl each in both nostrils; n=4
Procedure: as §1, §2, §3

In the case of `CC(=O)[C@H]1CC[C@H]2[C@@H]3CC=C4C[C@@H](O)CC[C@]4(C)[C@H]3CC[C@]12C` [pregnenolone], the “extracellular acetylcholine in the amygdala contralateral to the treated nostril” value [1] is reported as “not in the contralateral amygdala”, the “extracellular acetylcholine in the amygdala ipsilateral to the treated nostril” value [1] is reported as “Higher increase in the ipsilateral amygdala of extracellular level of acetylcholine; also recorded: increases acetylcholine in the amygdala ipsilateral to this nostril” and the “effect on acetylcholine release in the frontal cortex” value ([2]; 5.6 mg/mL, n=5) is reported as “Neither pregnenolone (PREG) at dosage 5.6 mg/mL or 11.2 mg/mL had an effect”. The “effect on acetylcholine release in the frontal cortex” value ([2]; 11.2 mg/mL, n=6) was “Neither pregnenolone (PREG) at dosage 5.6 mg/mL or 11.2 mg/mL had an effect”, the “effect on acetylcholine release in the hippocampus” value ([3]; 5.6 mg/mL, n=7) was “had no effect” and the “effect on acetylcholine release in the hippocampus” value ([3]; 11.2 mg/mL, n=5) was “had an effect on acetylcholine release in the hippocampus, but this effect was not significant”. The “effect on acetylcholine (ACh) release in the amygdala” value [4] was “induced an increase in acetylcholine release in the amygdala”.
